In PubChem BioAssay AID2060903 (Molecular Pharmacology Branch, DTP, NCI, 2025):

System: 377384-186-R-J1-PDC complex spheroid viability
Experiment: Anticancer human tumor 377384-186-R-J1-PDC patient-derived pancreatic carcinoma cell line growth inhibition [RAS]
Settings: for IC50: curve of first compound; for viability, T/C: stronger effect = lower value
In short: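 Agents were tested in combination matrices in half-log decrements from a top concentration at or near clinical Cmax (10 microM if undetermined). Targets were multi-cell spheroids of tumour lines plus HUVEC and MSC stromal cells.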

[1] = second compound 0.000949 µM, first compound 0.00316 µM
[2] = second compound 0.000949 µM, first compound 0.01 µM
[3] = second compound 0.000949 µM, first compound 0.0316 µM
[4] = second compound 0.000949 µM, first compound 0.1 µM
[5] = second compound 0.000949 µM, first compound 0.316 µM
[6] = second compound 0.000949 µM, first compound 1 µM
[7] = second compound 0.003 µM, first compound 0.00316 µM
[8] = second compound 0.003 µM, first compound 0.01 µM
[9] = second compound 0.003 µM, first compound 0.0316 µM
[10] = second compound 0.003 µM, first compound 0.1 µM
[11] = second compound 0.003 µM, first compound 0.316 µM
[12] = second compound 0.003 µM, first compound 1 µM
[13] = second compound 0.00949 µM, first compound 0.00316 µM
[14] = second compound 0.00949 µM, first compound 0.01 µM
[15] = second compound 0.00949 µM, first compound 0.0316 µM
[16] = second compound 0.00949 µM, first compound 0.1 µM
[17] = second compound 0.00949 µM, first compound 0.316 µM
[18] = second compound 0.00949 µM, first compound 1 µM
[19] = second compound 0.03 µM, first compound 0.00316 µM
[20] = second compound 0.03 µM, first compound 0.01 µM
[21] = second compound 0.03 µM, first compound 0.0316 µM
[22] = second compound 0.03 µM, first compound 0.1 µM
[23] = second compound 0.03 µM, first compound 0.316 µM
[24] = second compound 0.03 µM, first compound 1 µM
[25] = second compound 0.0949 µM, first compound 0.00316 µM
[26] = second compound 0.0949 µM, first compound 0.01 µM
[27] = second compound 0.0949 µM, first compound 0.0316 µM
[28] = second compound 0.0949 µM, first compound 0.1 µM
[29] = second compound 0.0949 µM, first compound 0.316 µM
[30] = second compound 0.0949 µM, first compound 1 µM
[31] = second compound 0.3 µM, first compound 0.00316 µM
[32] = second compound 0.3 µM, first compound 0.01 µM
[33] = second compound 0.3 µM, first compound 0.0316 µM
[34] = second compound 0.3 µM, first compound 0.1 µM
[35] = second compound 0.3 µM, first compound 0.316 µM
[36] = second compound 0.3 µM, first compound 1 µM
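Also: spheroids exposed to compounds for seven days before readout.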

CC1(C)CCC(Nc2ncc(C(F)(F)F)c(-c3c[nH]c4c(P(C)(C)=O)c(C#N)ccc34)n2)CN1 (stereo unspecified) + C=CC(=O)N1CCN(c2nc(OCC3CCCN3C)nc3c(F)c(-c4nc(N)cc(C)c4C(F)(F)F)c(Cl)cc23)C(C)C1
IC50 (second compound 0.00316 µM): 2.98 nM | IC50 (second compound 0.01 µM): 4.06 nM | IC50 (second compound 0.0316 µM): 4.22 nM | IC50 (second compound 0.1 µM): 2.65 nM | IC50 (second compound 0.316 µM): 3.18 nM | IC50 (second compound 1 µM): 3.33 nM | viability, T/C (second compound 0.00316 µM, first compound 0.000949 µM): 83.3% | viability, T/C (second compound 0.00316 µM, first compound 0.003 µM): 49.5% | viability, T/C (second compound 0.00316 µM, first compound 0.00949 µM): 27.8% | viability, T/C (second compound 0.00316 µM, first compound 0.03 µM): 15.9% | viability, T/C (second compound 0.00316 µM, first compound 0.0949 µM): 14.4% | viability, T/C (second compound 0.00316 µM, first compound 0.3 µM): 13.2% | viability, T/C (second compound 0.01 µM, first compound 0.000949 µM): 89% | viability, T/C (second compound 0.01 µM, first compound 0.003 µM): 57.6% | viability, T/C (second compound 0.01 µM, first compound 0.00949 µM): 28.6% | viability, T/C (second compound 0.01 µM, first compound 0.03 µM): 17% | viability, T/C (second compound 0.01 µM, first compound 0.0949 µM): 13.9% | viability, T/C (second compound 0.01 µM, first compound 0.3 µM): 14.7% | viability, T/C (second compound 0.0316 µM, first compound 0.000949 µM): 79.1% | viability, T/C (second compound 0.0316 µM, first compound 0.003 µM): 60.1% | viability, T/C (second compound 0.0316 µM, first compound 0.00949 µM): 26% | viability, T/C (second compound 0.0316 µM, first compound 0.03 µM): 18.8% | viability, T/C (second compound 0.0316 µM, first compound 0.0949 µM): 14.8% | viability, T/C (second compound 0.0316 µM, first compound 0.3 µM): 15% | viability, T/C (second compound 0.1 µM, first compound 0.000949 µM): 74.6% | viability, T/C (second compound 0.1 µM, first compound 0.003 µM): 46.9% | viability, T/C (second compound 0.1 µM, first compound 0.00949 µM): 27.7% | viability, T/C (second compound 0.1 µM, first compound 0.03 µM): 17.5% | viability, T/C (second compound 0.1 µM, first compound 0.0949 µM): 14.5% | viability, T/C (second compound 0.1 µM, first compound 0.3 µM): 12.5% | viability, T/C (second compound 0.316 µM, first compound 0.000949 µM): 76.1% | viability, T/C (second compound 0.316 µM, first compound 0.003 µM): 51.3% | viability, T/C (second compound 0.316 µM, first compound 0.00949 µM): 26.7% | viability, T/C (second compound 0.316 µM, first compound 0.03 µM): 16.5% | viability, T/C (second compound 0.316 µM, first compound 0.0949 µM): 13.6% | viability, T/C (second compound 0.316 µM, first compound 0.3 µM): 13.2% | viability, T/C (second compound 1 µM, first compound 0.000949 µM): 78.7% | viability, T/C (second compound 1 µM, first compound 0.003 µM): 52.6% | viability, T/C (second compound 1 µM, first compound 0.00949 µM): 25% | viability, T/C (second compound 1 µM, first compound 0.03 µM): 17.4% | viability, T/C (second compound 1 µM, first compound 0.0949 µM): 16% | viability, T/C (second compound 1 µM, first compound 0.3 µM): 12.5%

C=CC(=O)Nc1cc(Nc2nccc(-c3cn(C)c4ccccc34)n2)c(OC)cc1N(C)CCN(C)C + CCn1c(-c2cc(N3CCN(C)CC3)cnc2C(C)OC)c2c3cc(ccc31)-c1csc(n1)CC(NC(=O)C1CC1C)C(=O)N1CCCC(N1)C(=O)OCC(C)(C)C2
IC50 (second compound 0.000949 µM): < 3.16 nM | IC50 (second compound 0.003 µM): < 3.16 nM | IC50 (second compound 0.00949 µM): < 3.16 nM | IC50 (second compound 0.03 µM): < 3.16 nM | IC50 (second compound 0.0949 µM): < 3.16 nM | IC50 (second compound 0.3 µM): < 3.16 nM | viability, T/C [1]: 30% | viability, T/C [2]: 45% | viability, T/C [3]: 32.3% | viability, T/C [4]: 27.5% | viability, T/C [5]: 12.1% | viability, T/C [6]: 4.35% | viability, T/C [7]: 17.5% | viability, T/C [8]: 17.3% | viability, T/C [9]: 11.2% | viability, T/C [10]: 4.88% | viability, T/C [11]: 2.22% | viability, T/C [12]: 1.8% | viability, T/C [13]: 4.04% | viability, T/C [14]: 11% | viability, T/C [15]: 3.16% | viability, T/C [16]: 3.12% | viability, T/C [17]: 1.55% | viability, T/C [18]: 1.78% | viability, T/C [19]: 2.43% | viability, T/C [20]: 1.94% | viability, T/C [21]: 1.75% | viability, T/C [22]: 2.15% | viability, T/C [23]: 2.02% | viability, T/C [24]: 1.52% | viability, T/C [25]: 2.3% | viability, T/C [26]: 1.82% | viability, T/C [27]: 1.99% | viability, T/C [28]: 2.1% | viability, T/C [29]: 1.5% | viability, T/C [30]: 0.91% | viability, T/C [31]: 2.2% | viability, T/C [32]: 1.68% | viability, T/C [33]: 1.82% | viability, T/C [34]: 1.46% | viability, T/C [35]: 1.28% | viability, T/C [36]: 0.91%

O=C(c1ccc(F)c(F)c1Nc1ccc(I)cc1F)N1CC(O)([C@@H]2CCCCN2)C1 + CCn1c(-c2cc(N3CCN(C)CC3)cnc2C(C)OC)c2c3cc(ccc31)-c1csc(n1)CC(NC(=O)C1CC1C)C(=O)N1CCCC(N1)C(=O)OCC(C)(C)C2
IC50 (second compound 0.000949 µM): < 3.16 nM | IC50 (second compound 0.003 µM): < 3.16 nM | IC50 (second compound 0.00949 µM): < 3.16 nM | IC50 (second compound 0.03 µM): < 3.16 nM | IC50 (second compound 0.0949 µM): < 3.16 nM | IC50 (second compound 0.3 µM): < 3.16 nM | viability, T/C [1]: 40.6% | viability, T/C [2]: 28.1% | viability, T/C [3]: 9.77% | viability, T/C [4]: 2.04% | viability, T/C [5]: 0.28% | viability, T/C [6]: 0.8% | viability, T/C [7]: 16.4% | viability, T/C [8]: 4.75% | viability, T/C [9]: 3.32% | viability, T/C [10]: 1.15% | viability, T/C [11]: 0.17% | viability, T/C [12]: 0.13% | viability, T/C [13]: 3.22% | viability, T/C [14]: 2.06% | viability, T/C [15]: 1.32% | viability, T/C [16]: 0.24% | viability, T/C [17]: 0.08% | viability, T/C [18]: 0.13% | viability, T/C [19]: 2.61% | viability, T/C [20]: 1.37% | viability, T/C [21]: 0.71% | viability, T/C [22]: 0.07% | viability, T/C [23]: 0.12% | viability, T/C [24]: 0.09% | viability, T/C [25]: 1.11% | viability, T/C [26]: 0.96% | viability, T/C [27]: 0.28% | viability, T/C [28]: 0.12% | viability, T/C [29]: 0.15% | viability, T/C [30]: 0.18% | viability, T/C [31]: 1.01% | viability, T/C [32]: 1.34% | viability, T/C [33]: 0.16% | viability, T/C [34]: 0.2% | viability, T/C [35]: 0.28% | viability, T/C [36]: 0.18%
